# Reference: PubChem BioAssay AID1963434 (Molecular Pharmacology Branch, DTP, NCI, 2024)
# “And” between values parts separate entries of the source, which are not always exact repeats. Equal entries are not always repeated.
# System: 755483-174-R-J1-PDC complex spheroid growth, percent test/control
# Experiment: Anticancer human tumor 755483-174-R-J1-PDC patient-derived rhabdomyosarcoma cell line growth inhibition [Asc]
# Conditions: for viability, T/C: stronger effect = lower value
# Summary of the method: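 Tumor cells were grown as multicellular spheroids with stromal HUVEC and mesenchymal stem cells and treated singly or in combination. Concentrations fell in half-log steps from the clinical Cmax, or from 10 microM where none was known.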
# [1] = curve of first compound, second compound 0.1 µM
# [2] = curve of first compound, second compound 0.316 µM
# [3] = curve of first compound, second compound 1 µM
# 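Note: spheroids exposed to compounds for seven days before readout.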
compound,measurement,setting,value
CNC(C)C(=O)NC1CN(S(=O)(=O)c2cccc(S(=O)(=O)N3CCC4CCC(C(=O)NC(c5ccccc5)c5ccccc5)N4C(=O)C(NC(=O)C(C)NC)C3)c2)CCC2CCC(C(=O)NC(c3ccccc3)c3ccccc3)N2C1=O (configuration not stated) + CCN1C(C(=O)NC23CCC(C(=O)O)(CC2)CC3)C(c2cccc(Cl)c2F)C2(C(=O)Nc3cc(Cl)ccc32)C12CCCCC2,IC50,"curve of first compound, second compound 0.03 µM",68.5 nM
same,IC50,"curve of first compound, second compound 0.0949 µM",42.9 nM
same,IC50,"curve of first compound, second compound 0.3 µM",76.7 nM
same,IC50,"curve of first compound, second compound 0.949 µM",9.97 nM
same,IC50,"curve of first compound, second compound 3 µM",12.5 nM
same,"viability, T/C","second compound 0.03 µM, first compound 0.00316 µM",80.3%
same,"viability, T/C","second compound 0.03 µM, first compound 0.01 µM",65.6%
same,"viability, T/C","second compound 0.03 µM, first compound 0.0316 µM",51.9%
same,"viability, T/C","second compound 0.03 µM, first compound 0.1 µM",52%
same,"viability, T/C","second compound 0.03 µM, first compound 0.316 µM",39.7%
same,"viability, T/C","second compound 0.03 µM, first compound 1 µM",36.2%
same,"viability, T/C","second compound 0.0949 µM, first compound 0.00316 µM",74.6%
same,"viability, T/C","second compound 0.0949 µM, first compound 0.01 µM",64.6%
same,"viability, T/C","second compound 0.0949 µM, first compound 0.0316 µM",51.1%
same,"viability, T/C","second compound 0.0949 µM, first compound 0.1 µM",40.9%
same,"viability, T/C","second compound 0.0949 µM, first compound 0.316 µM",43.9%
same,"viability, T/C","second compound 0.0949 µM, first compound 1 µM",32.5%
same,"viability, T/C","second compound 0.3 µM, first compound 0.00316 µM",76.7%
same,"viability, T/C","second compound 0.3 µM, first compound 0.01 µM",80.9%
same,"viability, T/C","second compound 0.3 µM, first compound 0.0316 µM",56.1%
same,"viability, T/C","second compound 0.3 µM, first compound 0.1 µM",39.1%
same,"viability, T/C","second compound 0.3 µM, first compound 0.316 µM",46%
same,"viability, T/C","second compound 0.3 µM, first compound 1 µM",59.5%
same,"viability, T/C","second compound 0.949 µM, first compound 0.00316 µM",92.7%
same,"viability, T/C","second compound 0.949 µM, first compound 0.01 µM",48.8%
same,"viability, T/C","second compound 0.949 µM, first compound 0.0316 µM",52.6%
same,"viability, T/C","second compound 0.949 µM, first compound 0.1 µM",56.2%
same,"viability, T/C","second compound 0.949 µM, first compound 0.316 µM",42%
same,"viability, T/C","second compound 0.949 µM, first compound 1 µM",34.6%
same,"viability, T/C","second compound 3 µM, first compound 0.00316 µM",51.5%
same,"viability, T/C","second compound 3 µM, first compound 0.01 µM",54%
same,"viability, T/C","second compound 3 µM, first compound 0.0316 µM",38.8%
same,"viability, T/C","second compound 3 µM, first compound 0.1 µM",36.8%
same,"viability, T/C","second compound 3 µM, first compound 0.316 µM",23.5%
same,"viability, T/C","second compound 3 µM, first compound 1 µM",54.1%
O=C(c1cc(Cc2n[nH]c(=O)c3ccccc23)ccc1F)N1CCN(C(=O)C2CC2)CC1,"viability, T/C",compound 0.0316 µM,81.5% and 67.3% and 77.6%
same,"viability, T/C",compound 0.1 µM,57.5% and 87% and 85.7%
same,"viability, T/C",compound 0.316 µM,70.2% and 82% and 67.8%
same,"viability, T/C",compound 1 µM,41.8% and 56.8% and 65.6%
same,"viability, T/C",compound 3.16 µM,32.3% and 51.1% and 43.3%
same,"viability, T/C",compound 10 µM,30.1% and 17.6% and 22.7%
same,IC50,curve of compound,713 nM and 2730 nM and 2210 nM
Cc1nc(N2CCC3(CC2)COC(C)C3N)c(CO)nc1Sc1ccnc(N)c1Cl (configuration not stated) + Cc1c(S(C)(=O)=O)c(-c2cc(F)cc(N3CCN(c4ccc(NS(=O)(=O)c5ccc(NC(CCN6CCC(C(=O)OCCCP(=O)(O)O)CC6)CSc6ccccc6)c(S(=O)(=O)C(F)(F)F)c5)cc4)CC3)c2)c(-c2ccc(Cl)cc2)n1C(C)C,IC50,[1],< 9.49 nM
same,IC50,[2],< 9.49 nM
same,IC50,[3],< 9.49 nM
same,IC50,"curve of first compound, second compound 3.16 µM",< 9.49 nM
same,IC50,"curve of first compound, second compound 10 µM",< 9.49 nM
same,"viability, T/C","second compound 0.1 µM, first compound 0.00949 µM",49.6%
same,"viability, T/C","second compound 0.1 µM, first compound 0.03 µM",46.2%
same,"viability, T/C","second compound 0.1 µM, first compound 0.0949 µM",40.3%
same,"viability, T/C","second compound 0.1 µM, first compound 0.3 µM",26.5%
same,"viability, T/C","second compound 0.1 µM, first compound 0.949 µM",14.2%
same,"viability, T/C","second compound 0.1 µM, first compound 3 µM",13.8%
same,"viability, T/C","second compound 0.316 µM, first compound 0.00949 µM",42.4%
same,"viability, T/C","second compound 0.316 µM, first compound 0.03 µM",43.5%
same,"viability, T/C","second compound 0.316 µM, first compound 0.0949 µM",34.6%
same,"viability, T/C","second compound 0.316 µM, first compound 0.3 µM",23%
same,"viability, T/C","second compound 0.316 µM, first compound 0.949 µM",12.7%
same,"viability, T/C","second compound 0.316 µM, first compound 3 µM",9.74%
same,"viability, T/C","second compound 1 µM, first compound 0.00949 µM",33.5%
same,"viability, T/C","second compound 1 µM, first compound 0.03 µM",33.9%
same,"viability, T/C","second compound 1 µM, first compound 0.0949 µM",38.6%
same,"viability, T/C","second compound 1 µM, first compound 0.3 µM",21.9%
same,"viability, T/C","second compound 1 µM, first compound 0.949 µM",17.7%
same,"viability, T/C","second compound 1 µM, first compound 3 µM",10.4%
same,"viability, T/C","second compound 3.16 µM, first compound 0.00949 µM",26.5%
same,"viability, T/C","second compound 3.16 µM, first compound 0.03 µM",47.5%
same,"viability, T/C","second compound 3.16 µM, first compound 0.0949 µM",26.4%
same,"viability, T/C","second compound 3.16 µM, first compound 0.3 µM",21.2%
same,"viability, T/C","second compound 3.16 µM, first compound 0.949 µM",16.8%
same,"viability, T/C","second compound 3.16 µM, first compound 3 µM",10.5%
same,"viability, T/C","second compound 10 µM, first compound 0.00949 µM",33.3%
same,"viability, T/C","second compound 10 µM, first compound 0.03 µM",36%
same,"viability, T/C","second compound 10 µM, first compound 0.0949 µM",25.8%
same,"viability, T/C","second compound 10 µM, first compound 0.3 µM",23.6%
same,"viability, T/C","second compound 10 µM, first compound 0.949 µM",9.38%
same,"viability, T/C","second compound 10 µM, first compound 3 µM",6.34%
CCN1CCN(Cc2ccc(Nc3ncc(F)c(-c4cc(F)c5nc(C)n(C(C)C)c5c4)n3)nc2)CC1 + CNC(C)C(=O)NC1CN(S(=O)(=O)c2cccc(S(=O)(=O)N3CCC4CCC(C(=O)NC(c5ccccc5)c5ccccc5)N4C(=O)C(NC(=O)C(C)NC)C3)c2)CCC2CCC(C(=O)NC(c3ccccc3)c3ccccc3)N2C1=O,IC50,"curve of first compound, second compound 0.01 µM",< 3.16 nM
same,IC50,"curve of first compound, second compound 0.0316 µM",< 3.16 nM
same,IC50,[1],> 1000 nM
same,IC50,[2],< 3.16 nM
same,IC50,[3],< 3.16 nM
same,"viability, T/C","second compound 0.01 µM, first compound 0.00316 µM",31.1%
same,"viability, T/C","second compound 0.01 µM, first compound 0.01 µM",66%
same,"viability, T/C","second compound 0.01 µM, first compound 0.0316 µM",53.4%
same,"viability, T/C","second compound 0.01 µM, first compound 0.1 µM",54.2%
same,"viability, T/C","second compound 0.01 µM, first compound 0.316 µM",61%
same,"viability, T/C","second compound 0.01 µM, first compound 1 µM",74.4%
same,"viability, T/C","second compound 0.0316 µM, first compound 0.00316 µM",43.8%
same,"viability, T/C","second compound 0.0316 µM, first compound 0.01 µM",33.8%
same,"viability, T/C","second compound 0.0316 µM, first compound 0.0316 µM",40.6%
same,"viability, T/C","second compound 0.0316 µM, first compound 0.1 µM",40.5%
same,"viability, T/C","second compound 0.0316 µM, first compound 0.316 µM",63.8%
same,"viability, T/C","second compound 0.0316 µM, first compound 1 µM",69.5%
same,"viability, T/C","second compound 0.1 µM, first compound 0.00316 µM",58.5%
same,"viability, T/C","second compound 0.1 µM, first compound 0.01 µM",37.7%
same,"viability, T/C","second compound 0.1 µM, first compound 0.0316 µM",55.4%
same,"viability, T/C","second compound 0.1 µM, first compound 0.1 µM",59.5%
same,"viability, T/C","second compound 0.1 µM, first compound 0.316 µM",47.8%
same,"viability, T/C","second compound 0.1 µM, first compound 1 µM",57.5%
same,"viability, T/C","second compound 0.316 µM, first compound 0.00316 µM",16.2%
same,"viability, T/C","second compound 0.316 µM, first compound 0.01 µM",37.3%
same,"viability, T/C","second compound 0.316 µM, first compound 0.0316 µM",40.9%
same,"viability, T/C","second compound 0.316 µM, first compound 0.1 µM",31%
same,"viability, T/C","second compound 0.316 µM, first compound 0.316 µM",47.5%
same,"viability, T/C","second compound 0.316 µM, first compound 1 µM",39.9%
same,"viability, T/C","second compound 1 µM, first compound 0.00316 µM",32.1%
same,"viability, T/C","second compound 1 µM, first compound 0.01 µM",18.2%
same,"viability, T/C","second compound 1 µM, first compound 0.0316 µM",26.8%
same,"viability, T/C","second compound 1 µM, first compound 0.1 µM",18.6%
same,"viability, T/C","second compound 1 µM, first compound 0.316 µM",26.1%
same,"viability, T/C","second compound 1 µM, first compound 1 µM",32.3%
